Consider five compounds from patent US20060078875A1, “Genetic selection of small molecule modulators of protein-protein interactions” (The Penn State Research Foundation, priority 2004, published 2006).

Peptide text beside a SMILES is read from it.

The target of assay [1] is T1, ATIC homodimer (Gallus gallus, UniProt P31335).
T1 construct: expressed in transfected cells; host or cells: E. coli RTHS strain with the ATIC fusion integrated on the chromosome
T1 sequence (P31335 1-593): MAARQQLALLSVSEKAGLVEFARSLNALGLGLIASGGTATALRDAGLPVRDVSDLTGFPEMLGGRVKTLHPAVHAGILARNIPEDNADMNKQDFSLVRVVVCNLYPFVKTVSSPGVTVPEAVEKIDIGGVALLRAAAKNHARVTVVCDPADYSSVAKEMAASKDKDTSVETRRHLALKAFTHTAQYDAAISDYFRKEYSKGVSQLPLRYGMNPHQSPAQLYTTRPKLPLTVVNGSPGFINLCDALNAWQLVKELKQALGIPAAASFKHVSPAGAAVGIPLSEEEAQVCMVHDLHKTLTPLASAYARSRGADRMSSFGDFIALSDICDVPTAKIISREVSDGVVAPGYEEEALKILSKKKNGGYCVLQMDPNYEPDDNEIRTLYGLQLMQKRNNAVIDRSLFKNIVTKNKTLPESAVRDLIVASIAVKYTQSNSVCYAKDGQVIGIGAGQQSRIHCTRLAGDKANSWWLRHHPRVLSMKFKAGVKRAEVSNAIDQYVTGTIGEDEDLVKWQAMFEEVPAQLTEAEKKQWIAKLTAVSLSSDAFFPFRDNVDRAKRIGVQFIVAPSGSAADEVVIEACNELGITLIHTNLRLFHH
Put plainly: ATIC RTHS ranking by spotting serial dilutions on selective media. The class given is cell-based. Particulars: cyclic peptides in order of biological activity (1 = most active). On the procedure: ATIC was cloned as a fusion with the bacteriophage 434 repressor DNA binding domain (into pTHCP16, FIG. 1B) such that expression of the repressor-ATIC fusion placed under control of an isopropyl β-D-thiogalactoside (IPTG) inducible promoter. […] In order to improve selection conditions, a new RTHS strain was constructed by integrating the ATIC fusion onto the chromosome. The level of IPTG giving optimal repression was determined to be 50 μM by β-galactosidase assays.
The first SICLOPPS library transformed into the selection strain encoded a hexapeptide with five random residues and a cysteine nucleophile. Approximately 10^7 transformants were plated onto histidine-free minimal media supplemented with arabinose, (inducer for SICLOPPS) 3-amino-1,2,4-triazole (3-AT, competitive inhibitor of HIS3 product) and kanamycin at a density of 10^6 per plate (100×15 mm). The plates were incubated until colonies were readily visible (approximately one in 10^5). A second library encoding an octapeptide with five random residues and an invariable SGW motif was also tested (not shown). Around 200 colonies were picked and screened for arabinose dependent growth advantage and IPTG dependent inhibition of growth to eliminate false positives. The expected phenotype was further confirmed by isolating and retransforming the selected SICLOPPS plasmids into the selection strain. The 14 remaining cyclic peptides were then ranked for activity by spotting serial dilutions of the corresponding cells onto selective media, allowing the conferred growth advantage to be compared at each dilution level.
SICLOPPS libraries were transformed into E. coli strains containing integrated reporter and repressor constructs. Transformants were washed with minimal media A and plated on minimal media A supplemented with 13 μM L-(+)-arabinose, 2.5 mM 3-amino-1,2,4-triazole, 25 μM kanamycin and 50 μM IPTG. After incubation at 37° C. for 3-4 days, surviving colonies were restreaked onto the same media with and without arabinose. Plasmids from selected strains whose growth depended on the presence of arabinose were retransformed into the original selection strain and checked for phenotype retention. The variable insert regions on SICLOPPS plasmids were PCR-amplified, and their DNA sequence determined.

Assay [2] has as its target T2, avian ATIC (AICAR Tfase) (Gallus gallus, UniProt P31335).
T2 sequence (P31335 1-593): T1 sequence (P31335 1-593)
Briefly: AICAR Tfase progress curve analysis (DynaFit). The arrangement: 6× histidine tag (N); made in house. It is filed as biochemical. The following applies: progress curves.
Description: The inhibitors were assayed under two conditions, limiting the amount of each substrate. In one case 168 nM of ATIC, 100 μM of 10-f-THF and 20 μM of AICAR was used (limiting AICAR), and in the second case 168 nM of ATIC, 40 μM of 10-f-THF and 100 μM of AICAR was used (limiting 10-f-THF). The reactions were monitored as outlined above, for 50 minutes. […] The data was fitted to the standard inhibition models (non-competitive, uncompetitive, mixed and competitive) and a model in which the inhibitor binds a monomer of ATIC preventing dimerization.
The progress curves were fitted to a model in which the inhibitor binds a single protomer of ATIC thereby preventing dimerization, as well as the standard inhibition models (non-competitive, uncompetitive, mixed and competitive) using DynaFit [Kuzmic (1996)].

Assay [3] deals with T2, avian ATIC (AICAR Tfase). Briefly: AICAR Tfase assay.
Description: All assays were performed using a Varian Cary 100 Spectrometer. All reaction mixtures were 500 μl in volume and carried out in 1 cm pathlength quartz cuvettes at 25° C. The enzyme used in all of the inhibition studies was avian ATIC, fused to a N-terminal 6× histidine tag to facilitate purification. […] The peptides were dissolved in DMSO to a final concentration of 2.5 mM.
84 nM of ATIC, 50 μM of 10-f-THF and various quantities of inhibitor were mixed in the assay buffer (32.5 mM Tris-HCl, 25 mM KCl, pH 7.4). The mixture was incubated at 25° C. for 2 min before initiating the reaction by addition of 20 μM AICAR. The reaction was monitored by measuring the increase in absorbance due to formation of tetrahydrofolate at 298 nm.
The peptides were assumed to be competing with f-10-THF, which binds to ATIC and stabilizes its dimerization.
Assay [4] has as its target T3, ribonucleotide reductase large subunit (mR1) (Mus musculus, UniProt P07742).
T3 construct: made in house; host or cells: E. coli BL21(λDE3) Rosetta, pET28a-MR1
T3 sequence (P07742 1-792): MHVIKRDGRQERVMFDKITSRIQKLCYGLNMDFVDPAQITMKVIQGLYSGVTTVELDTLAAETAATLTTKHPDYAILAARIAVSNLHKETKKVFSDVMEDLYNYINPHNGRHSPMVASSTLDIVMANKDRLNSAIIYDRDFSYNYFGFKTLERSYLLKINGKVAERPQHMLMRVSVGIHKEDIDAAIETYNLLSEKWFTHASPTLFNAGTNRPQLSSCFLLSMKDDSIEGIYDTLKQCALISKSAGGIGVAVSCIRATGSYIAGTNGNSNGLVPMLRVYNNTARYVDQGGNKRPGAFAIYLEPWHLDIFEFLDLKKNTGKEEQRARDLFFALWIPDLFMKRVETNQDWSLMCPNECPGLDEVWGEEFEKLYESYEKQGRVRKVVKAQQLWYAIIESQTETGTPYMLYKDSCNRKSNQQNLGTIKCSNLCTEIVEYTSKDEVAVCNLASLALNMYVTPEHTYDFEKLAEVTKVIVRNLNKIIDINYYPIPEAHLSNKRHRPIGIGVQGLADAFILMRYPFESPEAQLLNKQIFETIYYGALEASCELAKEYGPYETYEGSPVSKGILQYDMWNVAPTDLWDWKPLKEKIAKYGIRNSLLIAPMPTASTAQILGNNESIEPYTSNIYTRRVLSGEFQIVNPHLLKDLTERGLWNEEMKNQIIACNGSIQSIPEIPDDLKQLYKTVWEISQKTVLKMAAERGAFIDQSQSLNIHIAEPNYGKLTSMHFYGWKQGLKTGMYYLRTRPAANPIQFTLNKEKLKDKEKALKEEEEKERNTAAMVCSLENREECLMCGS
Put plainly: Immobilized peptide binding/competition ELISA with mR1. Further details: species or system murine. The following applies: peptide immobilized via cysteine on maleimide plates; His6-tagged mR1. How it is done:
(§1) FIG. 8B provides the results of an immobilized P8 ELISA.
(§2) Two variations of solid phase binding assays were used for analyzing the binding of peptide inhibitors to ribonucleotide reductase subunits: i) protein competition ELISA where peptides were competing with mR1 for binding to immobilized mR2, ii) binding and competition ELISA with covalently immobilized ligands. In general, the solid phase assays were performed in microtiter plates (MaxiSorp, Nunc) or strip units (Reacti-Bind™ Maleimide Activated Clear Strip Plates, Pierce) involving continuous agitation in Junior Orbit Shaker (Lab-line Instruments) at medium speed during all of the incubation steps. Sample volumes were 100 μL, unless specified otherwise. Following coating, blocking step was conducted by incubating pre-loaded wells with 5% bovine serum albumin in PBS for 1 h at room temperature. Wash procedures between any two successive incubations involved three washes with 200 μL of 0.5% Tween-20 in PBS (PBST), with the second wash involving a 5 min incubation. Detection of His-tagged proteins was performed with Ni·NTA-HRP conjugate (Qiagen) according to the manufacturer instructions.
(§3) Peptides (200 nmol per well) in 10% DMF/50 mM Tris·HCl (pH 7.5) with 1 mM TCEP were reacted for 2 h at room temperature with maleimide-derivatized polystyrene wells. The unreacted sites were blocked by incubating wells with 5 μM cysteine in 50 mM Tris·HCl (pH 7.5) for 30 min. Following washing and blocking steps, the wells were incubated with His-tagged mR1 or mR2 in the presence or absence of inhibitors. The retained protein was detected via Ni·NTA-HRP conjugate.
(§4) To determine the mechanism of action of the four identified sequences an alternative assay format was devised (FIG. 8A), where a peptide with a residual activity in its immobilized form can serve as a specific ligand for receptor capture in both binding and competition ELISA. The success of such an assay relies on both efficient peptide immobilization strategy and sufficient level of affinity, uncompromised by this display strategy. The peptide immobilization becomes feasible through implementation of a cysteine, a nucleophile used in splicing, as a universal chemoselective handle allowing covalent attachment strategy through a suitable electrophile. Chemoselective attachment of such peptides on appropriately derivatized surfaces should both display the small molecules for detection with a suitable protein receptor and allow binding site competition analysis, not unlike in a traditional immunosorbent format.
Background: ELISA stands for enzyme-linked immunosorbent assay.

Assay [5] has as its target T4, ribonucleotide reductase small subunit (mR2) (Mus musculus, UniProt P11157).
T4 construct: made in house; host or cells: E. coli BL21(λDE3), pET28a-MR2
T4 sequence (P11157 1-390): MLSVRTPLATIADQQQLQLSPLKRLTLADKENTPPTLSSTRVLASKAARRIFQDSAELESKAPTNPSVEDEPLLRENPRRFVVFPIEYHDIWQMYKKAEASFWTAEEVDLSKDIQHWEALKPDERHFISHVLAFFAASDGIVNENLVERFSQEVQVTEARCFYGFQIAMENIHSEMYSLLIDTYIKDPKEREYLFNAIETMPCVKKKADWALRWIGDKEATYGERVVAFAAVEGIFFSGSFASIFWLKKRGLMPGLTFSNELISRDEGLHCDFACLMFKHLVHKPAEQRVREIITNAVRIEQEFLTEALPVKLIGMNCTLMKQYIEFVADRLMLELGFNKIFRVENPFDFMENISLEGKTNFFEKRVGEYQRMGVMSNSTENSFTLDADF
Briefly: Immobilized c-RR130 binding/competition ELISA with mR2. The arrangement: species or system murine. Particulars: increasing protein concentrations. On the procedure:
as §1, §2, §3, §4

Assay [6] concerns the target T5, His6-mR2 (Mus musculus, UniProt P11157).
T5 construct: made in house; host or cells: E. coli BL21(λDE3), pET28a-MR2
T5 sequence (P11157 1-390): T4 sequence (P11157 1-390)
Briefly: Quenching of intrinsic mR2 tryptophan fluorescence. It is filed as binding, murine. The following applies: PBS pH 7.0. How it is done: The equilibrium dissociation constant, KD, for His-tagged mR2·cRR130 complex was measured by the quenching of intrinsic protein fluorescence as a function of ligand concentration using a Flouromax-2 (SA Instruments) spectrofluorometer. His6-mR2 was added to 1× phosphate buffered saline (PBS) buffer at pH 7.0, and enzyme concentrations were kept below the KD being measured and were typically 1 μM. The small subunit mR2 contains six tryptophan residues whose combined fluorescence was monitored at 350 nm with excitation at 295 nm. Fluorescence data were collected as a function of added cRR130. The data was corrected for ligand background fluorescence and were fit to a hyperbolic equation to generate the KD value.

For assay [7], the target named is T6, HIV-1 protease (Human immunodeficiency virus type 1 group M subtype B, UniProt P04585, D513N).
T6 construct: HIV-1 protease was PCR amplified from pET-HIV-1; expressed in transfected cells; host or cells: E. coli strain SNS118 (integrated fusion)
Put plainly: RTHS β-galactosidase assay, HIV-1 protease fusion in strain SNS118. The class given is cell-based. The following applies: peptide co-expressed with HIV-1 protease fusion. On the procedure: FIG. 4 has two graphs (A and B) of β-galactosidase assays showing the effect of linear peptide inhibitors on the oligomeric state of HIV-1 protease and ribonucleotide reductase.
pHIV5. HIV-1 protease was PCR amplified from pET-HIV-1 [Ido et al. (1991) J. Biol. Chem. 266:24359-24366] and cloned into SalI and BamHI sites of pTHCP16. The catalytic aspartate (D25) was mutated to asparagine using 3-primer PCR [Michael (1994) Biotechniques 16:410-412], and a S(G)4S linker was added at the SalI site.
Overlapping oligonucleotides encoding MTVSYEL (methionine plus hexapaptide control inhibitor) (SEQ ID:17) [Schramm et al. (1996) Antiviral Res. 30:155-170] were cloned into EcoRI and SphI sites on arabinose expression plasmid pBAD18.
Towards this goal, both enzyme complexes were probed with known linear peptidic inhibitors. These peptides are a C-terminal hexapeptide (FIG. 4A, pHIV16) for HIV protease that inhibits the essential β-sheet interactions [Schramm al. (1996) Antiviral Res. 30:155-170], and a heptapeptide for ribonucleotide reductase (pTHCP35, FIG. 4B) that competes with binding between subunits mR1 and mR2 [Yang et al. (1990) FEBS Lett. 272:61-64].

Take `CC(C)[C@@H]1NC(=O)[C@H](CC(N)=O)NC(=O)[C@H](Cc2ccccc2)NC(=O)[C@H](Cc2ccc(O)cc2)NC(=O)[C@H](CCCNC(=N)N)NC(=O)[C@H](CS)NC1=O` [c-1a, R Y F N V C] (cyclo(RYFNVC)): the “Activity Rank” value in assay [1] was found to be 1. In assay [2], the “Best-fitting inhibition model with respect to 10-f-THF” value is listed as “inhibition of enzyme dimerization” and the “Best-fitting inhibition model with respect to AICAR” value is recorded as “non-competitive inhibition model”.
`CSCC[C@@H]1NC(=O)[C@H](Cc2c[nH]c3ccccc23)NC(=O)CNC(=O)[C@H](CO)NC(=O)[C@H](C(C)C)NC(=O)[C@H](CC(N)=O)NC(=O)[C@H](CC(C)C)NC(=O)[C@H](Cc2ccccc2)NC1=O` [c-151, M F L N V SGW] (cyclo(WMFLNVSG)): the “Activity Rank” value in assay [1] stood at 1. In assay [3], affinity was put at a Ki of 59 ± 6.8 µM.
Regarding `CC(C)[C@@H]1NC(=O)[C@H](CC(N)=O)NC(=O)[C@H](Cc2ccc(O)cc2)NC(=O)[C@H](Cc2ccc(O)cc2)NC(=O)[C@H](CCCNC(=N)N)NC(=O)[C@H](CS)NC1=O` [c-RR130] (cyclo(CRYYNV)), the “Affinity of immobilized peptide toward mR1” value in assay [4] is “immune”. Also, the “Capture of His6-tagged mR2 by immobilized peptide” value in assay [5] is on record as “selectively captured”. For the same compound, in assay [6], the Kd (commonly the equilibrium constant for the complex coming apart) came to 53 µM.
Regarding `CC(C)[C@@H]1NC(=O)[C@H](Cc2ccc(O)cc2)NC(=O)[C@H](CCCNC(=N)N)NC(=O)[C@H](Cc2c[nH]cn2)NC(=O)[C@H](CS)NC(=O)[C@H](Cc2ccccc2)NC1=O` [c-RR133] (cyclo(CHRYVF)), the Kd in assay [6] was determined as 133 µM.
With MTVSYEL [pHIV16], in assay [7], the “Repression of the lacZ reporter” value was “relieved repression”.
